In the test the target is urease (Canavalia ensiformis, UniProt P07374). The test is described as follows: urease inhibition, ammonia production by indophenol method. Format: biochemical.
urease, sequence (P07374 whole entry, looked up): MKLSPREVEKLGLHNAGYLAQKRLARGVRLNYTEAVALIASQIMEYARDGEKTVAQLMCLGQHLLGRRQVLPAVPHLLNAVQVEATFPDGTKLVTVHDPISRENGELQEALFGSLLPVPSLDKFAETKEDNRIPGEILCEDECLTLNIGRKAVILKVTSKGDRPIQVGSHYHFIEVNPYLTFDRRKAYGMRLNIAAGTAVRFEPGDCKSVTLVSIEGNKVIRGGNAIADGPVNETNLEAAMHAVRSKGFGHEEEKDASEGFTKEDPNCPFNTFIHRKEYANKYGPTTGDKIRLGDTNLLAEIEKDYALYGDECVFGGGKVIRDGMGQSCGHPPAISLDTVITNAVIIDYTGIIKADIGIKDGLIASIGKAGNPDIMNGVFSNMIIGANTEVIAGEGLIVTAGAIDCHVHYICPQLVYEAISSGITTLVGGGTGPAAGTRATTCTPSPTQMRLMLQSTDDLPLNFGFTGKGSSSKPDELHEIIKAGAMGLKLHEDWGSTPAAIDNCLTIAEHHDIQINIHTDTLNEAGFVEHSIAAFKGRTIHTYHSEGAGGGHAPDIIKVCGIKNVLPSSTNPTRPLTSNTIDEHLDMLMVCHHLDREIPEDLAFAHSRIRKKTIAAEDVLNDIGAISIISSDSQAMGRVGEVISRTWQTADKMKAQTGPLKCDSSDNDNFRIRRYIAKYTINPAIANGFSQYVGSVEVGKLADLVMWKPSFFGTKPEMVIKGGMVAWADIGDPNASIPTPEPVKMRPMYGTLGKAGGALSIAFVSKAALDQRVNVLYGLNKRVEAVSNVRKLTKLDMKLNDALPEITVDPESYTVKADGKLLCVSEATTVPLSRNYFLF
A word on the IC50: it is the midpoint of a concentration-inhibition curve. High values mean a need for much substance, low ones inhibition by little substance. As to `C=CC1(C)CCC2=C(CCC3C2(C)CCC(O)C3(C)CO)C1` (stereo not drawn) [compound 15, aglycon of virescenoside B], the IC50 amounted to 125 µM. `C=CC1(C)CCC2C(=CCC3C2(C)CC(O)C(O)C3(C)CO)C1` (stereo not drawn) [compound 14, aglycon of virescenoside A] yielded an IC50 of 139 µM. To `NC(N)=S` [Thiourea, reference compound] belongs 23 µM.

The record behind these values is paper PMC6891331, “Virescenosides from the Holothurian-Associated Fungus Acremonium striatisporum Kmm 4401” (Marine Drugs, 2019).
